Experimental data reported in US12173018B2, “Penicillin-binding protein inhibitors” (priority 2018, dated 2024).
≈ marks a conversion by molar mass, not a printed value. Read-outs that look alike come from different tables or passages of the source.

Assays:
E. coli ATCC 25922 = assay: Broth microdilution MIC, E. coli ATCC 25922; type: cell-based; conditions: Escherichia coli
Procedure, shortened: (§1)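 Following CLSI guidance, growth inhibition is measured in Mueller-Hinton broth with divalent cations. Inoculum 5×10^5 CFU/mL; incubation 16-20 hours, 37° C; endpoint is visual absence of growth.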

E. coli AG100 = assay: Broth microdilution MIC, E. coli AG100 (wild-type parent); type: cell-based; conditions: Escherichia coli; wild-type parent E. coli AG100, broth microdilution; read-out: MIC E. coli AG100
Procedure, shortened: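 Starting inoculum of 5×10^5 CFU/mL, from colonies grown 3-5 h in Mueller-Hinton broth with divalent cations, added to two-fold compound dilution series.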

E. coli 901C = assay: microbe, parasite or virus in culture; type: cell-based; conditions: Escherichia coli; hyper-permeable E. coli 901C, broth microdilution; read-out: MIC E. coli 901C
Procedure, shortened: as §1

E. coli AG100A = assay: microbe, parasite or virus in culture; type: cell-based; conditions: Escherichia coli, read-out: MIC E. coli AG100A
Procedure, shortened: as §1

E. coli D22 = assay: microbe, parasite or virus in culture; type: cell-based; conditions: Escherichia coli; hyper-permeable E. coli D22, broth microdilution; read-out: MIC E. coli D22
Procedure, shortened: as §1

K. pneumoniae SI-117 = assay: microbe, parasite or virus in culture; type: cell-based; conditions: Klebsiella pneumoniae, SI117, read-out: MIC K. pneumoniae SI-117
Procedure, shortened: as §1

K. pneumoniae UMM = assay: microbe, parasite or virus in culture; type: cell-based; conditions: Klebsiella pneumoniae; K. pneumoniae UMM producing SHV-5 and KPC-2; read-out: MIC K. pneumoniae UMM
Procedure, shortened: as §1

K. pneumoniae 848844 = assay: microbe, parasite or virus in culture; type: cell-based, Klebsiella pneumoniae; conditions: Klebsiella pneumoniae; K. pneumoniae 848844 producing SHV-11 and KPC-2; read-out: MIC K. pneumoniae 848844
Procedure, shortened: as §1

[1] = test system: N. gonorrhoeae ATCC 49226; assay: Liquid broth MIC, N. gonorrhoeae ATCC 49226; type: cell-based; conditions: Neisseria gonorrhoeae, ATCC49226; N. gonorrhoeae ATCC 49226, liquid broth; read-out: Minimum Inhibitory Concentration, N. gonorrhoeae ATCC 49226
Procedure, shortened: (§2)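 Colonies sub-cultured 24 h earlier on supplemented GC agar are suspended in broth, adjusted by optical density at 600 nm and added to 2-fold serial compound dilutions at 5×10^5 CFU/mL. Plates incubate 40-42 hours at 36° C with 5% CO2 before visual MIC reading.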

N. gonorrhoeae FA1090 = assay: Liquid broth MIC, N. gonorrhoeae FA1090; type: cell-based; conditions: Neisseria gonorrhoeae; N. gonorrhoeae FA1090, liquid broth; read-out: Minimum Inhibitory Concentration, N. gonorrhoeae FA1090
Procedure, shortened: as §2

N. gonorrhoeae WHO F = assay: Liquid broth MIC, N. gonorrhoeae WHO F; type: cell-based; conditions: Neisseria gonorrhoeae; N. gonorrhoeae WHO F, liquid broth; read-out: Minimum Inhibitory Concentration, N. gonorrhoeae WHO F
Procedure, shortened: as §2

N. gonorrhoeae FA19 = assay: Liquid broth MIC, N. gonorrhoeae FA19; type: cell-based; conditions: Neisseria gonorrhoeae; N. gonorrhoeae FA19, liquid broth; read-out: Minimum Inhibitory Concentration, N. gonorrhoeae FA19
Procedure, shortened: as §2

[2] = ATCC25922, E. coli ATCC 25922, broth microdilution, read-out: MIC E. coli 25922

Row | Compound | MIC (E. coli ATCC 25922; [2]) [µg/mL] | MIC (E. coli AG100) [µg/mL] | MIC (E. coli 901C) [µg/mL] | MIC (E. coli AG100A) [µg/mL] | MIC (E. coli D22) [µg/mL] | MIC (K. pneumoniae SI-117) [µg/mL] | MIC (K. pneumoniae UMM) [µg/mL] | MIC (K. pneumoniae 848844) [µg/mL] | MIC [1] [µg/mL] | MIC (N. gonorrhoeae FA1090) [µg/mL] | MIC (N. gonorrhoeae WHO F) [µg/mL] | MIC (N. gonorrhoeae FA19) [µg/mL] | MIC (E. coli ATCC 25922; ATCC25922, read-out: MIC E. coli 25922) [µg/mL]
1 | CCN1CCN(C(=O)NC(C(=O)N[C@H]2Cc3cccc(C(=O)O)c3OB2O)c2cnc(O)cn2)C(=O)C1=O (stereo partly drawn) [Example 121, (3R)-3-(2-(4-ethyl-2,3-dioxopiperazine-1-carboxamido)-2-(5-hydroxypyrazin-2-yl)acetamido)-2-hydroxy-3,4-dihydro-2H-benzo[e][1,2]oxaborinine-8-carboxylic acid] | 32 to 64 | 32 to 64 | 0.5 to 1 | 2 to 4 | 8 to 16 | 32 to 64 | 8 to 16 | > 128 |  |  |  |  | 
2 | NS(=O)(=O)c1ccc(C(NC(=O)N2CCN(CCF)C(=O)C2=O)C(=O)N[C@H]2Cc3cccc(C(=O)O)c3OB2O)cc1 (stereo partly drawn) [Example 103, (3R)-3-(2-(4-(2-fluoroethyl)-2,3-dioxopiperazine-1-carboxamido)-2-(4-sulfamoylphenyl)acetamido)-2-hydroxy-3,4-dihydro-2H-benzo[e][1,2]oxaborinine-8-carboxylic acid] | 32 to 64 | 8 to 16 | < 0.25 | 2 to 4 |  |  | 32 to 64 |  | 1 to 2 (≈ 1.65 to 3.3 µM) | < 0.125 | < 0.125 | 1 to 2 (≈ 1.65 to 3.3 µM) | 
3 | CCCN1CCN(C(=O)NC(C(=O)N[C@H]2Cc3ccc(F)c(C(=O)O)c3OB2O)c2ccc(O)c(O)c2Cl)C(=O)C1=O (stereo partly drawn) [Example 125] | 2 to 4 | 2 to 4 | 0.5 to 1 | 2 to 4 | 0.5 to 1 | 2 to 4 | 32 to 64 |  | 4 to 8 (≈ 6.59 to 13.2 µM) | 1 to 2 (≈ 1.65 to 3.3 µM) | 0.25 to 0.5 (≈ 0.412 to 0.824 µM) | 16 to 32 (≈ 26.4 to 52.7 µM) | 
4 | CCN1CCN(C(=O)N[C@@H](C(=O)N[C@H]2Cc3ccc(F)c(C(=O)O)c3OB2O)[C@@H](C)O)C(=O)C1=O [Example 110, (R)-3-((2R,3R)-2-(4-ethyl-2,3-dioxopiperazine-1-carboxamido)-3-hydroxybutanamido)-7-fluoro-2-hydroxy-3,4-dihydro-2H-benzo[e][1,2]oxaborinine-8-carboxylic acid] | 8 to 16 | 8 to 16 | 2 to 4 | 8 to 16 | 8 to 16 | 8 to 16 | 8 to 16 | 32 to 64 |  |  |  |  | 
5 | CCN1CCN(C(=O)NC(C(=O)N[C@H]2Cc3cccc(C(=O)O)c3OB2O)c2cc(O)c(O)cc2F)C(=O)C1=O (stereo partly drawn) [Example 90, (3R)-3-(2-(4-ethyl-2,3-dioxopiperazine-1-carboxamido)-2-(2-fluoro-4,5-dihydroxyphenyl)acetamido)-2-hydroxy-3,4-dihydro-2H-benzo[e][1,2]oxaborinine-8-carboxylic acid] | 8 to 16 | 8 to 16 | 0.5 to 1 | 2 to 4 | 8 to 16 | > 128 | 8 to 16 | 32 to 64 |  |  |  |  | 
6 | CCN1CCN(C(=O)NC(C(=O)N[C@H]2Cc3cccc(C(=O)[O-])c3OB2O)c2ccc[n+](CC(N)=O)c2)C(=O)C1=O (stereo partly drawn) [Example 107, (3R)-3-(2-(1-(2-amino-2-oxoethyl)pyridin-1-ium-3-yl)-2-(4-ethyl-2,3-dioxopiperazine-1-carboxamido)acetamido)-2-hydroxy-3,4-dihydro-2H-benzo[e][1,2]oxaborinine-8-carboxylate] | 32 to 64 | 32 to 64 | 8 to 16 | 8 to 16 | 32 to 64 | 32 to 64 | 32 to 64 | 32 to 64 |  |  |  |  | 
7 | CCN1CCN(C(=O)NC(C(=O)N[C@H]2Cc3cccc(C(=O)O)c3OB2O)c2ccc(O)cc2)C(=O)C1=O (stereo partly drawn) [Example 27, (3R)-3-(2-(4-ethyl-2,3-dioxopiperazine-1-carboxamido)-2-(4-hydroxyphenyl)acetamido)-2-hydroxy-3,4-dihydro-2H-benzo[e][1,2]oxaborinine-8-carboxylic acid] |  | 32 to 64 | 0.5 to 1 | 2 to 4 | 8 to 16 | 32 to 64 | 32 to 64 | > 128 |  |  |  |  | 32 to 64
